Measurements reported in the NIST ThermoML archive (doi:10.1016/j.fluid.2006.09.021).

Conditions: Liquid, Closed cell (Static) method

S [hydrogen sulfide]
Conditions | vapor or sublimation pressure [kPa]
223.19 K | 167.4
228.2 K | 209.1
233.11 K | 257.4
238.04 K | 313.9
243.04 K | 380.1
248.01 K | 456.7
252.97 K | 544.2
258.01 K | 644.5
263 K | 757.7
268.02 K | 885.7
273.17 K | 1032.3
278.24 K | 1194.1
283.26 K | 1371.1
288.31 K | 1566.6
293.1 K | 1767.9
293.3 K | 1779.5
298.41 K | 2022.2
303.08 K | 2259.6
313.11 K | 2847.2
323.18 K | 3540.4
333.17 K | 4339.5
343.16 K | 5261.2
353.17 K | 6319.2
363.16 K | 7533
373.15 K | 8932.1
